# Measured values published in patent publication US20140148443A1, “Novel Imidazolines as dual inhibitors of MDM2 and MDMX” (priority 2012, published 2014).
# pIC50: −log10 of the molar value.
# Key:
# GST-tagged MDMX = biological target: T1, GST-tagged MDMX (Homo sapiens, UniProt O15151); assay: HTRF binding assay of GST-tagged MDMX to p53 peptide
# T1 sequence (O15151 1-490): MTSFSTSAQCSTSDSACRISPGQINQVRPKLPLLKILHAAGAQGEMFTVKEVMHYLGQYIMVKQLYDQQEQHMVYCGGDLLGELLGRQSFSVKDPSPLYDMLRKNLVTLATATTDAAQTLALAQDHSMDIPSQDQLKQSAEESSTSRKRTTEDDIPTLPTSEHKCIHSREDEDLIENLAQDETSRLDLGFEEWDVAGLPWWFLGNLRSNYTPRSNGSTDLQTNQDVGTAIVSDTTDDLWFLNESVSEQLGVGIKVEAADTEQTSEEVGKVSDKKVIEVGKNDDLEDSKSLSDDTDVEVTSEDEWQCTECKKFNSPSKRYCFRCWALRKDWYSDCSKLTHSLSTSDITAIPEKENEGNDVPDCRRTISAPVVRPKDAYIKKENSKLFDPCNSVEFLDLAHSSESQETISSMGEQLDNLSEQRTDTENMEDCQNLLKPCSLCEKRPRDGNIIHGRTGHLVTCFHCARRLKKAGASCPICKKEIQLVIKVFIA
# [1] = biological target: recombinant GST-tagged MDM2 (Homo sapiens, UniProt Q00987); assay: HTRF assay of interaction between p53 peptide and GST-tagged MDM2; conditions: inhibition of GST-MDM2 (160 ng/ml) binding to biotinylated p53-peptide
# Experimental: The ability of a test compound to inhibit the interaction between p53 and MDM2 protein was measured by an HTRF (homogeneous time-resolved fluorescence) assay in which recombinant GST-tagged MDM2 binds to a peptide that resembles the MDM2-interacting region of p53 Aca-[…]-OH hereinafter p53-peptide). Binding of GST-MDM2 protein and p53-peptide (biotinylated on its N-terminal end) is registered by the FRET (fluorescence resonance energy transfer) between Europium (Eu)-labeled anti-GST antibody and streptavidin-conjugated Allophycocyanin (APC).
# The test was performed in black flat-bottom 384-well plates (Costar) in a total volume of 40 uL containing: 90 nM biotinylated peptide, 160 ng/ml GST-MDM2, 20 nM streptavidin-APC (PerkinElmerWallac), 2 nM Eu-labeled anti-GST-antibody (PerkinElmerWallac), 0.02% bovine serum albumin (BSA), 1 mM dithiothreitol (DTT) and 20 mM […] (TBS) buffer as follows: add 10 uL of GST-MDM2 (640 ng/ml working solution) in reaction buffer to each well. Add 10 uL diluted compounds (1:5 dilution in reaction buffer) to each well, mix by shaking. Add 20 uL biotinylated p53 peptide (180 nM working solution) in reaction buffer to each well and mix on shaker. Incubate at 37° C. for 1 h. Add […] streptavidin-APC and Eu-anti-GST antibody mixture (6 nM Eu-anti-GST and 60 nM streptavidin-APC working solution) in TBS buffer with 0.02% BSA, shake at room temperature for 30 minutes and read using a TRF-capable plate reader at 665 and 615 nm (Victor 5, Perkin ElmerWallac). If not specified, the reagents were purchased from Sigma Chemical Co.
# Chain of recombinant GST-tagged MDM2 (Q00987 whole entry): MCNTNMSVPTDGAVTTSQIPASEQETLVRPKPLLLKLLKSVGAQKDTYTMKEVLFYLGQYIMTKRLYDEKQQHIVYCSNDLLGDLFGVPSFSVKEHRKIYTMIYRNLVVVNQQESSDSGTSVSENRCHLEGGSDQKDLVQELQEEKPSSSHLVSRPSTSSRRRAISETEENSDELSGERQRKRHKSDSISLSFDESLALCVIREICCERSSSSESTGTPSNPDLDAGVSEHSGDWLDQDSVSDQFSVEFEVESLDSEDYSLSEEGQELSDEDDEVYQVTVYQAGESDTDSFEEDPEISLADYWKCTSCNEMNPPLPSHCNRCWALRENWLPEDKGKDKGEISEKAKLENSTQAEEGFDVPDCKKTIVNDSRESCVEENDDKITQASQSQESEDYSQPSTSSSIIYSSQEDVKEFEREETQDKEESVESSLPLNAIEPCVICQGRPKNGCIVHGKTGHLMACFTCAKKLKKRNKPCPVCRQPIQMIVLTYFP
SMILES,pIC50 (GST-tagged MDMX),pIC50 [1]
"CCOc1cc(Cl)c(S(C)(=O)=O)cc1C1=N[C@@](C)(c2ccc(Cl)cc2)[C@@](C)(c2ccc(Cl)cc2)N1C(=O)N1CCC2(CCN(CCS(=O)(=O)CC)CC2)CC1 [Example 28, [(4S,5R)-2-(4-Chloro-2-ethoxy-5-methanesulfonyl-phenyl)-4,5-bis-(4-chloro-phenyl)-4,5-dimethyl-4,5-dihydro-imidazol-1-yl]-[9-(2-ethanesulfonyl-ethyl)-3,9-diaza-spiro[5.5]undec-3-yl]-methanone]",5.83,8.34
"CCOc1cc(Cl)c(S(C)(=O)=O)cc1C1=N[C@@](C)(c2ccc(Cl)cc2)[C@@](C)(c2ccc(Cl)cc2)N1C(=O)N1CCC(NC(=O)NC(C)C)CC1 [Example 11, 1-{1-[(4S,5R)-2-(4-Chloro-2-ethoxy-5-methanesulfonyl-phenyl)-4,5-bis-(4-chloro-phenyl)-4,5-dimethyl-4,5-dihydro-imidazole-1-carbonyl]-piperidin-4-yl}-3-isopropyl-urea]",5.90,8.35
"CCOc1cc(Cl)c(S(C)(=O)=O)cc1C1=N[C@@](C)(c2ccc(Cl)cc2)[C@@](C)(c2ccc(Cl)cc2)N1C(=O)N1CCC(CCS(C)(=O)=O)CC1 [Example 13, [(4S,5R)-2-(4-Chloro-2-ethoxy-5-methanesulfonyl-phenyl)-4,5-bis-(4-chloro-phenyl)-4,5-dimethyl-4,5-dihydro-imidazol-1-yl]-[4-(2-methanesulfonyl-ethyl)-piperidin-1-yl]-methanone]",5.86,8.21
"CCOc1cc(Cl)c(S(=O)(=O)NC(C)(C)C)cc1C1=N[C@@](C)(c2ccc(Cl)cc2)[C@@](C)(c2ccc(Cl)cc2)N1C(=O)N1CCN(C(=O)Cn2cnnn2)CC1 [Example 52, 5-{(4S,5R)-4,5-Bis-(4-chloro-phenyl)-4,5-dimethyl-1-[4-(2-tetrazol-1-yl-acetyl)-piperazine-1-carbonyl]-4,5-dihydro-1H-imidazol-2-yl}-N-tert-butyl-2-chloro-4-ethoxy-benzene sulfonamide]",5.43,7.76
"CCOc1cc(Cl)c(S(C)(=O)=O)cc1C1=N[C@@](C)(c2ccc(Cl)cc2)[C@@](C)(c2ccc(Cl)cc2)N1C(=O)N1CCN(CC(=O)NC)CC1 [Example 29, 2-{4-[(4S,5R)-2-(4-Chloro-2-ethoxy-5-methanesulfonyl-phenyl)-4,5-bis-(4-chloro-phenyl)-4,5-dimethyl-4,5-dihydro-imidazole-1-carbonyl]-piperazin-1-yl}-N-methyl-acetamide]",5.99,8.30
"CCOc1cc(Cl)c(S(C)(=O)=O)cc1C1=N[C@@](C)(c2ccc(Cl)cc2)[C@@](C)(c2ccc(Cl)cc2)N1C(=O)N1CCC(N)CC1 [Example 8, (4-Amino-piperidin-1-yl)-[(4S,5R)-2-(4-chloro-2-ethoxy-5-methanesulfonyl-phenyl)-4,5-bis-(4-chloro-phenyl)-4,5-dimethyl-4,5-dihydro-imidazol-1-yl]-methanone]",5.97,8.36
"CCOc1cc(Cl)c(S(C)(=O)=O)cc1C1=N[C@@](C)(c2ccc(Cl)cc2)[C@@](C)(c2ccc(Cl)cc2)N1C(=O)N1CCN(CC[C@H](O)CO)C(=O)C1 [Example 4, 4-[(4S,5R)-2-(4-Chloro-2-ethoxy-5-methanesulfonyl-phenyl)-4,5-bis-(4-chloro-phenyl)-4,5-dimethyl-4,5-dihydro-imidazole-1-carbonyl]-1-((S)-3,4-dihydroxy-butyl)-piperazin-2-one]",5.76,8.27
"CCOc1cc(Cl)c(S(C)(=O)=O)cc1C1=N[C@@](C)(c2ccc(Cl)cc2)[C@@](C)(c2ccc(Cl)cc2)N1C(=O)N1CCN(CC(=O)N(CCOC)CCOC)CC1 [Example 15, 2-{4-[(4S,5R)-2-(4-Chloro-2-ethoxy-5-methanesulfonyl-phenyl)-4,5-bis-(4-chloro-phenyl)-4,5-dimethyl-4,5-dihydro-imidazole-1-carbonyl]-piperazin-1-yl}-N,N-bis-(2-methoxy-ethyl)-acetamide]",5.94,8.26
"CCOc1cc(Cl)c(S(C)(=O)=O)cc1C1=N[C@@](C)(c2ccc(Cl)cc2)[C@@](C)(c2ccc(Cl)cc2)N1C(=O)N1CCC(NC(C)=O)CC1 [Example 36, N-{1-[(4S,5R)-2-(4-Chloro-2-ethoxy-5-methanesulfonyl-phenyl)-4,5-bis-(4-chloro-phenyl)-4,5-dimethyl-4,5-dihydro-imidazole-1-carbonyl]-piperidin-4-yl}-acetamide]",5.90,8.32
"C[C@@]1(c2ccc(Cl)cc2)N=C(c2cc(S(C)(=O)=O)c(Cl)cc2OCCF)N(C(=O)N2CCN(CCCS(C)(=O)=O)CC2)[C@]1(C)c1ccc(Cl)cc1 [Example 43, [(4S,5R)-2-[4-Chloro-2-(2-fluoro-ethoxy)-5-methanesulfonyl-phenyl]-4,5-bis-(4-chloro-phenyl)-4,5-dimethyl-4,5-dihydro-imidazol-1-yl]-[4-(3-methanesulfonyl-propyl)-piperazin-1-yl]-methanone]",5.86,8.01
"CCOc1cc(Cl)c(S(C)(=O)=O)cc1C1=N[C@@](C)(c2ccc(Cl)cc2)[C@@](C)(c2ccc(Cl)cc2)N1C(=O)N1CCN(CCC(N)=O)CC1 [Example 27, 3-{4-[(4S,5R)-2-(4-Chloro-2-ethoxy-5-methanesulfonyl-phenyl)-4,5-bis-(4-chloro-phenyl)-4,5-dimethyl-4,5-dihydro-imidazole-1-carbonyl]-piperazin-1-yl}-propionamide]",5.55,8.06
"CCOc1cc(Cl)c(S(C)(=O)=O)cc1C1=N[C@@](C)(c2ccc(Cl)cc2)[C@@](C)(c2ccc(Cl)cc2)N1C(=O)N1CCN(CC(=O)N(CCOC(C)C)CCOC(C)C)CC1 [Example 23, 2-{4-[(4S,5R)-2-(4-Chloro-2-ethoxy-5-methanesulfonyl-phenyl)-4,5-bis-(4-chloro-phenyl)-4,5-dimethyl-4,5-dihydro-imidazole-1-carbonyl]-piperazin-1-yl}-N,N-bis-(2-isopropoxy-ethyl)-acetamide]",5.73,8.26
"CCOc1cc(Cl)c(S(=O)(=O)NC(C)(C)C)cc1C1=N[C@@](C)(c2ccc(Cl)cc2)[C@@](C)(c2ccc(Cl)cc2)N1C(=O)N1CCN(CC(=O)NCCOC)CC1 [Example 49, 2-{4-[(4S,5R)-2-(5-tert-Butylsulfamoyl-4-chloro-2-ethoxy-phenyl)-4,5-bis-(4-chloro-phenyl)-4,5-dimethyl-4,5-dihydro-imidazole-1-carbonyl]-piperazin-1-yl}-N-(2-methoxy-ethyl)-acetamide]",5.87,8.06
"CC(C)Oc1cc(Cl)c(S(N)(=O)=O)cc1C1=N[C@@](C)(c2ccc(Cl)cc2)[C@@](C)(c2ccc(Cl)cc2)N1C(=O)N1CCN(CCCS(C)(=O)=O)CC1 [Example 65, 5-{(4S,5R)-4,5-Bis-(4-chloro-phenyl)-1-[4-(3-methanesulfonyl-propyl)-piperazine-1-carbonyl]-4,5-dimethyl-4,5-dihydro-1H-imidazol-2-yl}-2-chloro-4-isopropoxy-benzenesulfonamide]",6.47,8.11
"CC(C)Oc1cc(Cl)c(S(=O)(=O)N2CCCC2)cc1C1=N[C@@](C)(c2ccc(Cl)cc2)[C@@](C)(c2ccc(Cl)cc2)N1C(=O)N1CCN(CCCS(C)(=O)=O)CC1 [Example 58, [(4S,5R)-2-[4-Chloro-2-isopropoxy-5-(pyrrolidine-1-sulfonyl)-phenyl]-4,5-bis-(4-chloro-phenyl)-4,5-dimethyl-4,5-dihydro-imidazol-1-yl]-[4-(3-methanesulfonyl-propyl)-piperazin-1-yl]-methanone]",6.64,8.34
"CCOc1cc(Cl)c(S(C)(=O)=O)cc1C1=N[C@@](C)(c2ccc(Cl)cc2)[C@@](C)(c2ccc(Cl)cc2)N1C(=O)N1CCC2(CCNCC2)CC1 [Example 19, [(4S,5R)-2-(4-Chloro-2-ethoxy-5-methanesulfonyl-phenyl)-4,5-bis-(4-chloro-phenyl)-4,5-dimethyl-4,5-dihydro-imidazol-1-yl]-(3,9-diaza-spiro[5.5]undec-3-yl)-methanone]",5.42,7.90
